Tests used:
Format in all cases: in vivo
[1] = system: green peach aphid (Myzus persicae); assay: Myzus persicae - spray test
Excerpt: (§1) The expected activity for a given combination of two active compounds can be calculated according to S. R. Colby, Weeds 15 (1967), 20-22 as follows:
(§2) • X is the kill rate, expressed in % of the untreated control, when active compound A is applied at an application rate of m g/ha or at a concentration of m ppm, • Y is the kill rate, expressed in % of the untreated control, when active compound B is applied at an application rate of n g/ha or at a concentration of n ppm and • E is the kill rate, expressed in % of the untreated control, when active compounds A and B is applied at application rates of m and n g/ha or at a concentration of m and n ppm, then
(§3) If the observed insecticidal efficacy of the combination is higher than the one calculated as “E”, then the combination of the two compounds is more than additive, i.e., there is a synergistic effect.
(§4) To produce a suitable preparation of active compound, 1 part by weight of active compound is mixed with the stated amount of solvents and is diluted with water, containing an emulsifier concentration of 1000 ppm, to the desired concentration. To produce a suitable preparation of a spore suspension the spores are diluted with emulsifier containing water to the desired concentration. Further test concentrations are prepared by dilution with emulsifier containing water.
Chinese cabbage (Brassica pekinensis) leaf disks infected with all instars of the green peach aphid (Myzus persicae), are sprayed with a preparation of the active ingredient of the desired concentration.
After the specified period of time, mortality in % is determined 100% means all aphids have been killed; 0% means none of the aphids have been killed. The mortality values determined thus are recalculated using the Colby-formula (see sheet 1).

[2] = system: two spotted spidermite (Tetranychus urticae); assay: Tetranychus urticae - spray test, OP-resistant
Excerpt: as §1, §2, §3, §4
French bean (Phaseolus vulgaris) leaf disks which are heavily infested with all stages of the two spotted spidermite (Tetranychus urticae), are sprayed with a preparation of the active ingredient of the desired concentration.
After the specified period of time, mortality in % is determined. 100% means all spider mites have been killed and 0% means none of the spider mites have been killed. The mortality values determined thus are recalculated using the Colby-formula (see sheet 1).

[3] = system: larvae of the cotton boll worm (Heliothis armigera); assay: Heliothis armigera - spray test
Excerpt: as §1, §2, §3
To produce a suitable preparation of active compound, 1 part by weight of active compound is mixed with the stated amount of solvent and is diluted with water, containing an emulsifier concentration of 1000 ppm, to the desired concentration. Further test concentrations are prepared by dilution with emulsifier containing water Ammonium salt and/or penetration enhancer in a dosage of 1000 ppm are added to the desired concentration if necessary.
Cotton plants (Gossypium hirsutum) are treated by being sprayed with the preparation of the active compound of the desired concentration and are infested with larvae of the cotton boll worm (Heliothis armigera).
After the specified period of time, the mortality in % is determined 100% means all caterpillars have been killed; 0% means none of the caterpillars have been killed. The mortality values determined thus are recalculated using the Colby-formula (see sheet 1).

[4] = system: mustard beetle larvae (Phaedon cochleariae); assay: Phaedon cochleariae - spray test; details: 20 g ai/ha
Excerpt: as §1, §2, §3
To produce a suitable preparation of active compound, 1 part by weight of active compound is mixed with the stated amount of solvents and is diluted with water, containing an emulsifier concentration of 1000 ppm, to the desired concentration. […]
After the specified period of time, mortality in % is determined 100% means all beetle larvae have been killed and 0% means none of the beetle larvae have been killed. The mortality values determined thus are recalculated using the Colby-formula (see sheet 1).

## C/C(=N\C#N)N(C)Cc1ccc(Cl)nc1 [Acetamiprid]
[1]; 1.6 g ai/ha
  Efficacy in % after 6d: 70%
[2]; 0.8 g ai/ha
  Efficacy in % after 6d: 0%

## CN/C(=N\[N+](=O)[O-])NCc1cnc(Cl)s1 [Clothianidin]
[1]; 0.15 g ai/ha
  Efficacy in % after 6d: 0%
[2]; 4 g ai/ha
  Efficacy in % after 2d: 0%

## CN/C(=N/CC1CCOC1)N[N+](=O)[O-] (stereo not drawn) [Dinotefuran]
[1]; 4.8 g ai/ha
  Efficacy in % after 6d: 0%
[1]; 9.6 g ai/ha
  Efficacy in % after 6d: 70%
[2]; 4 g ai/ha
  Efficacy in % after 6d: 0%
[2]; 20 g ai/ha
  Efficacy in % after 2d: 0%

## O=[N+]([O-])NC1=NCCN1Cc1ccc(Cl)nc1 [Imidacloprid]
[2]; 0.8 g ai/ha
  Efficacy in % after 2d: 0%
[2]; 4 g ai/ha
  Efficacy in % after 2d: 0%
[3]; 80 ppm
  Efficacy in % after 1d: 0%
[3]; 160 ppm
  Efficacy in % after 1d: 0%
[3]; 320 ppm
  Efficacy in % after 1d: 30%
[3]; 320 ppm, after 2 d
  Efficacy in % after 2d: 70%

## N#C/N=C1\SCCN1Cc1ccc(Cl)nc1 [Thiacloprid]
[1]; 0.8 g ai/ha, after 1 d
  Efficacy in % after 1d: 0%

## CN1COCN(Cc2cnc(Cl)s2)/C1=N\[N+](=O)[O-] [Thiamethoxam]
[4]; after 2 d, Chinese cabbage leaf disks
  Efficacy in % after 2d: 0%
[4]; after 6 d
  Efficacy in % after 6d: 0%

## CS(=O)(=O)NC(=O)c1cccc(-c2cnc(-c3cccnc3)s2)n1 [Thiazolamid (II-11)]
[2]; 20 g ai/ha
  Efficacy in % after 2d: 0%
